Seven molecules from US10865216B2, “Tricyclic Gyrase inhibitors” (MERCK SHARP & DOHME CORP., priority 2012, dated 2020) can be followed below.

pIC50: −log10 of the molar value. In brackets after ≈: the same amount, converted by molar mass. Where two headings read alike, the source gives them in different places.

What is called pIC50 is the IC50 on a negative log10 scale, so that one unit is a factor of ten. A lower pIC50 goes with a large IC50.

The conditions of data set [1]: amide bond, BOP/Et3N then EDC, DCM/NMP 1:1, 40.0 °C.
The target in the next data set is T1, hERG (Homo sapiens, UniProt Q12809).
T1 construct: host or cells: Chinese Hamster Ovary K1 cells
T1 sequence (Q12809 whole entry): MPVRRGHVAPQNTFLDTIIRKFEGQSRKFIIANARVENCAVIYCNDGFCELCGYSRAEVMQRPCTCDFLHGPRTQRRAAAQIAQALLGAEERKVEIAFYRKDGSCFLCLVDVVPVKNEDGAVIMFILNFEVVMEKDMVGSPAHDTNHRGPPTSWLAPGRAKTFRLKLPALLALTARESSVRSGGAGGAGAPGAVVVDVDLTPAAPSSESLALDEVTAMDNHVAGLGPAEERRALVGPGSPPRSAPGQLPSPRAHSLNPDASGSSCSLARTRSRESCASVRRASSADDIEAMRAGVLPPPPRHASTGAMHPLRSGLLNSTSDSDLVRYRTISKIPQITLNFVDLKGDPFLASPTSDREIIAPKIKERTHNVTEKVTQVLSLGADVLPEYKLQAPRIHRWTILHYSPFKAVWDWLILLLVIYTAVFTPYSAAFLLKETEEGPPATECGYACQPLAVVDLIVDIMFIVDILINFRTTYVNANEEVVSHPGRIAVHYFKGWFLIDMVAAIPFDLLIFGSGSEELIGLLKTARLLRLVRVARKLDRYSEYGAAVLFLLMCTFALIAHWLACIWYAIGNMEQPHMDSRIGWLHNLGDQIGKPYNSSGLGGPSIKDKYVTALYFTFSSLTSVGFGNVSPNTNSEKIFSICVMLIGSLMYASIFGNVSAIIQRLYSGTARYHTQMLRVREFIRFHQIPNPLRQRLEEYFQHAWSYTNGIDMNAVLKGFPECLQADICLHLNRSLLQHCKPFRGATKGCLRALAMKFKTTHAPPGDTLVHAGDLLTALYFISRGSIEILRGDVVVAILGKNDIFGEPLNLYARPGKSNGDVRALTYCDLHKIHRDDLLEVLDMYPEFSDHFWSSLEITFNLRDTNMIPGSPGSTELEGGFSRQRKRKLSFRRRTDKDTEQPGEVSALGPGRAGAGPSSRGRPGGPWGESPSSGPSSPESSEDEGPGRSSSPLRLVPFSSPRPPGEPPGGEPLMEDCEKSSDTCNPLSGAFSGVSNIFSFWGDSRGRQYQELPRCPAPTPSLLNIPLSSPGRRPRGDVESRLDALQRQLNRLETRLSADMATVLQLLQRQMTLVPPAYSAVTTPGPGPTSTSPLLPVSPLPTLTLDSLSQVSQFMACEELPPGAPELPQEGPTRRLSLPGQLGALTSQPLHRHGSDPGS
Put plainly: Cerep automated patch-clamp hERG assay, Chinese Hamster Ovary K1 cells. The class given is cell-based. As to conditions: for pIC50: Table 19, automated patch-clamp, CHO K1 cells, tail current. On the procedure:
A Cerep automated patch-clamp assay using Chinese Hamster Ovary K1 cells was used to measure hERG IC50 values. The degree of inhibition (%) was obtained by measuring the tail current amplitude, which is induced by a one second test pulse to −40 mV after a two second pulse to +20 mV, before and after drug incubation (the difference in current was normalized to control and multiplied by 100 to obtain the percent inhibition).
Concentration (log) response curves were fitted to a logistic equation (three parameters assuming complete block of the current at very high test compound concentrations) to generate estimates of the 50% inhibitory concentration (IC50). The concentration-response relationship of each compound was constructed from the percentage reductions of current amplitude by sequential concentrations. The hERG IC50 values are provided in Table 19 below for the compounds tested.
Background: Patch clamp records ionic current or voltage across a cell membrane.

A further data set deals with E. coli ATCC 25922. The experiment in a line: MIC, E. coli ATCC 25922. The class given is cell-based. As to conditions: Escherichia coli.
In another data set the test system is S. aureus ATCC 13709. Put plainly: MIC, S. aureus ATCC 13709. It is filed as cell-based. As to conditions: Staphylococcus aureus.
For another data set, the system named is P. aeruginosa ATCC 15692. Put plainly: MIC, P. aeruginosa ATCC 15692. It is filed as cell-based. The note with it: Pseudomonas aeruginosa, ATCC15692.
For the next data set, the system named is A. baumannii ATCC 19606. The experiment in a line: MIC, A. baumannii ATCC 19606. It is filed as cell-based. As to conditions: Acinetobacter baumannii, ATCC19606.
The subject of the next data set is S. pneumoniae ATCC 51916. Put plainly: MIC, S. pneumoniae ATCC 51916. The note with it: Streptococcus pneumoniae, ATCC51916. The class given is cell-based.
The test system of data set [2] is K. pneumoniae ATCC 700603. Put plainly: MIC, K. pneumoniae ATCC 700603. The class given is cell-based. As to conditions: Klebsiella pneumoniae, ATCC700603.
The test system of data set [3] is F. tularensis holarctica LVS. The experiment in a line: microbe, parasite or virus in culture. The class given is cell-based. As to conditions: Francisella tularensis, read-out: Ft MIC.
For data set [4], the system named is B. thailandensis ATCC E264. Put plainly: microbe, parasite or virus in culture. The class given is cell-based. The note with it: Burkholderia thailandensis, ATCCE264, read-out: Bt MIC.
The subject of a further data set is Bp. The experiment in a line: organism not typed. The class given is cell-based. As to conditions: read-out: Bp MIC.
Setting [5] is: ATCC25922, E. coli, Alamar Blue read after overnight incubation at 35° C., read-out: MIC Ec.
The mark [6] stands for this setting: ATCC13709, S. aureus, Alamar Blue read after overnight incubation at 35° C., read-out: MIC Sa.

For `CN(C(=O)OC(C)(C)C)c1cc(F)cc2c1[nH]c1nc3nc(c12)NCCCCNC(=O)CSc1ncc(cn1)O3`, in [1] (from CN(C(=O)OC(C)(C)C)c1cc(F)cc2c1[nH]c1nc(Oc3cnc(SCC(=O)O)nc3)nc(NCCCCN)c12, 17-membered ring, 36.5 mM), the ring closure, yield after HPLC stood at 34%.
For `CNc1cc(F)cc2c1[nH]c1nc3nc(c12)N([C@H](CN)COCCCN)C(=O)CSc1ncc(cn1)O3`, the ring closure, yield after HPLC in data set [1] (from CNc1cc(F)cc2c1[nH]c1nc(Oc3cnc(SCC(=O)O)nc3)nc(N[C@H](CN)COCCCN)c12, 38.5 mM) was 57%.
Take “2-((5-((4-(6-aminohexyl)amino)-8-((tert-butoxycarbonyl)(methyl)amino)-6-fluoro-9H-pyrimido[4,5-b]indol-2-yl)oxy)pyrimidin-2-yl)thio)acetic acid”: the ring closure, yield after HPLC in [1] (the molecule shown is the open-chain precursor, 19-membered ring, 30.0 mM) came out at 72%.
Take “5-((4-(6-aminohexyl)amino)-8-((tert-butoxycarbonyl)(methyl)amino)-6-fluoro-9H-pyrimido[4,5-b]indol-2-yl)oxy)nicotinic acid”: in data set [1] (the molecule shown is the open-chain precursor, 16-membered ring, 18.5 mM), the ring closure, yield after HPLC amounted to 74%.
At hERG, `CNc1cc(F)cc2c1[nH]c1nc(Oc3cnc([C@@H](C)O)nc3)nc(N3C[C@H]4C[C@@H]3C[C@H]4N)c12` [Compound 4.408] showed a negative-log IC50 (pIC50) of 5.19. Besides, the MIC in the data set on E. coli ATCC 25922 (setting [5]) and in the data set on S. aureus ATCC 13709 (setting [6]) was not above 0.5 µg/mL each time.
Regarding `CNc1cc(F)cc2c1[nH]c1nc(Oc3cnc(C(C)O)nc3)nc(N3CC4C[C@@H](N)C4C3)c12` (stereo partly drawn) [Compound 4.409], the pIC50 against hERG was 5.12. Also, the MIC in the data set on E. coli ATCC 25922 (setting [5]) is not above 0.5 µg/mL; in the data set on E. coli ATCC 25922 (ATCC25922, Table 10, Ec = E. coli, strain not stated, read-out: Ec MIC) it was not above 0.5 µg/mL; with P. aeruginosa ATCC 15692 (Table 10, Pa = P. aeruginosa) it was 1 µg/mL (≈ 2.15 µM); in the data set on A. baumannii ATCC 19606 (Table 10, Ab = A. baumannii, strain not stated) it was 1 µg/mL (≈ 2.15 µM); in the data set with S. aureus ATCC 13709 (setting [6]) it was not above 0.5 µg/mL; in the data set with S. aureus ATCC 13709 (ATCC13709, Table 10, Sa = S. aureus, read-out: Sa MIC), not above 0.5 µg/mL. The MIC is not above 0.5 µg/mL in the data set with S. pneumoniae ATCC 51916 (Table 10, Spn = S. pneumoniae) and 4 µg/mL (≈ 8.61 µM) in data set [2] (Table 10, Kpn = K. pneumoniae).
In the case of `CNc1cc(F)c(F)c2c1[nH]c1nc(Oc3cnc([C@@H](C)O)nc3)nc(N3C[C@H]4C[C@@H]3C[C@H]4N)c12` [Compound 9.1], the pIC50 on hERG is 4.00 to 4.10. Moreover, the “selectivity in the hERG assay” value at hERG (compared with previous compounds in the series) was “significantly more selective”. The MIC with E. coli ATCC 25922 (ATCC25922, Table 20, read-out: Ec MIC) was not above 0.5 µg/mL; in data set [3], 0.5 µg/mL (≈ 1.04 µM); in [4], 0.5 µg/mL (≈ 1.04 µM); with P. aeruginosa ATCC 15692 (Table 20, read-out: Pa MIC) it was 2 µg/mL (≈ 4.15 µM); in the data set on A. baumannii ATCC 19606 (Table 20, read-out: Ab MIC), 1 µg/mL (≈ 2.07 µM); in the data set on Bp, 0.5 µg/mL (≈ 1.04 µM). Moreover, the MIC with S. aureus ATCC 13709 (ATCC13709, Table 20, read-out: Sa MIC) was not above 0.5 µg/mL; in the data set on S. pneumoniae ATCC 51916 (Table 20, read-out: Spn MIC) it was not above 0.5 µg/mL; in [2] (Table 20, read-out: Kpn MIC), 4 µg/mL (≈ 8.29 µM).
